The source of these data is patent US8318778B2, “Urea glucokinase activators” (Novo Nordisk A/S, priority 2007, dated 2012).

This experiment deals with T1, recombinant human glucokinase (Homo sapiens, UniProt P35557).
T1 construct: N-terminal His-tag ((His)8-VEQILA . . . Q466); made in house; host or cells: E. coli
T1 sequence (P35557 17-466 isoform P35557-2): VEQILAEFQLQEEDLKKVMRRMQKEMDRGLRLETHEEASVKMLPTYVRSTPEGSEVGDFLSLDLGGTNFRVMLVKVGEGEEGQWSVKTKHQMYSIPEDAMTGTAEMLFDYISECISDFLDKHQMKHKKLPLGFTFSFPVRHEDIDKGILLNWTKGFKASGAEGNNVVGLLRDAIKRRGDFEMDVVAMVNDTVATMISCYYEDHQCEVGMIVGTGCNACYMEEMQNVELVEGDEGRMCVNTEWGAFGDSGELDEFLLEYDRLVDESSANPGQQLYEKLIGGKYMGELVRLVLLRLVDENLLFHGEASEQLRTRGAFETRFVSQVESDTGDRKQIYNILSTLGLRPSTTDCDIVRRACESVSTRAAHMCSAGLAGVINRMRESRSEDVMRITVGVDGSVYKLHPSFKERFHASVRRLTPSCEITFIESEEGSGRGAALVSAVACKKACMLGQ
Put plainly: Glucokinase Activity Assay (I): spectrometric assay coupled to glucose 6-phosphate dehydrogenase. The settings on record: 15 mM glucose. The format is biochemical. As for the experimental part:
Glucokinase activity is assayed spectrometrically coupled to glucose 6-phosphate dehydrogenase to determine compound activation of glucokinase. The final assay contains 50 mM Hepes, pH 7.1, 50 mM KCl, 5 mM MgCl2, 2 mM dithiothreitol, 0.6 mM NADP, 1 mM ATP, 0.195 μM G-6-P dehydrogenase (from Roche, 127 671), 15 nM recombinant human glucokinase.
The purification of His-tagged human glucokinase (hGK) was performed as follows: The cell pellet from 50 ml E. coli culture was resuspended in 5 ml extraction buffer A (25 mM HEPES, pH 8.0, 1 mM MgCl2, 150 mM NaCl, 2 mM mercaptoethanol) with addition of 0.25 mg/ml lysozyme and 50 μg/ml sodium azide. […]
The compound to be tested is added into the well in final 2.5% DMSO concentration in an amount sufficient to give a desired concentration of compound, for instance 1, 5, 10, 25 or 50 μM. […] The plate is incubated at 25° C. for 5 min and kinetics is measured at 340 nm in SpectraMax every 30 seconds for 5 minutes. Results for each compound are expressed as the fold activation of the glucokinase activity compared to the activation of the glucokinase enzyme in an assay without compound after having been subtracted from a “blank”, which is without glucokinase enzyme and without compound. […]
The glucose sensitivity of the compounds are measured at a compound concentration of 10 μM and at glucose concentrations of 5 and 15 mM.

For orientation: EC50 means the midpoint of the concentration-response curve. `C[C@H]1CC[C@H](N(CC(F)(F)c2ccccc2)C(=O)Nc2ncc(SCC(=O)O)s2)CC1` [Example 83, {2-[3-(2,2-Difluoro-2-phenyl-ethyl)-3-(trans-4-methyl-cyclohexyl)-ureido]-thiazol-5-ylsulfanyl}-acetic acid]: the EC50 is 289 nM. Besides, the “FA (15 mM)” value (fold activation of glucokinase activity vs assay without compound) came out at 2.1.
